Measurements as given in patent US20030130484A1, “Inhibitors and disassemblers of fibrillogenesis” (priority 2001, published 2003).

Assays:
PrP106-126 = PrP106-126 (Homo sapiens, UniProt P04156); format: biochemical
[1] = Solubility in aqueous media and organic solvents
Calcein leakage assay = format: in vitro ADME; set-up: calcein escaped from the vesicles: dose or concentration left out as unconfirmed
Description: The leakage of vesicle contents was monitored by measuring the release of calcein (Terzi et al., 1995 and Pillot et al, 1996). Vesicles were prepared and separated from free calcein as described above for the radioactive compounds, except that the rehydration buffer contained […] calcein and 10 mM Na-EDTA. In the kinetic assay, peptide was added to the vesicle solution and the fluorescence was measured at ten minute intervals with excitation and emission wavelengths of 490 and 520 nm, respectively. Data were fit to an equation for a first order rate process. For the concentration dependence assay, different amounts of peptide were added to the vesicle solution and the fluorescence was measured after a two hour incubation at 37° C. The maximum leakage was determined by lysing the vesicles with the addition of 0.5% (w/v) Triton X-100.
The leakage of vesicle contents was monitored by measuring the release of calcein (Terzi et al., 1995; Pillot et al., 1996). Vesicles were prepared and separated from free calcein as described herein for the radioactive compounds, except that the rehydration buffer contained 40 mM calcein and 1 mM Na-EDTA. […] The maximum fluorescence was measured by lysing the vesicles with the addition of 0.1% (w/v) Triton X-100.

[2] = Circular dichroism under denaturing conditions (urea, pH, GuHCl, temperature); format: physicochemical; conditions: pH 2.5-10.5, 8M GuHCl, 20° and 70° C.
Description: (§1) A 1 mm or 0.1 mm pathlength cell was used for measurements, depending on the concentration of the solution. Six to eight scans were acquired from 250 nm to 200 nm. For the pH experiment, a 100 mM phosphate-citrate buffer was used for pH 2.5-6.5, a 100 mM phosphate buffer was used for pH 7.5-8.5 and a 100 mM glycine-NaOH buffer was used for pH 9.5-10.5.
as §1, with “The circular dichroic (CD) spectra were recorded using a Jasco P715 spectropolarimeter. […] A” for “A”, “9.5-10.5. For the urea denaturation experiment, Ad 16-20m was dissolved in 100 mM phosphate buffer pH 7.4 with 0-8.5 M urea.” for “9.5-10.5.”

Aβ40 fibrils = Aβ40 fibrils (Homo sapiens, UniProt P05067)
Aβ40 = Aβ40 (Homo sapiens, UniProt P05067); assay: Inhibition of Aβ40 fibrillogenesis, thioflavin T fluorescence assay; format: biochemical
Aβ40, sequence (P05067 672-711): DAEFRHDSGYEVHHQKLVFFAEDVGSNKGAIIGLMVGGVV

Aβ40 fibrils, sequence (P05067 672-711): as above
PrP106-126, sequence (P04156 106-126 limits assumed): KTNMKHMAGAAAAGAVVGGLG

CC(=O)N[C@@H](CCCCN)C(=O)N(C)[C@@H](CC(C)C)C(=O)N[C@H](C(=O)N(C)[C@@H](Cc1ccccc1)C(=O)N[C@@H](Cc1ccccc1)C(N)=O)C(C)C [Aβ16-20m, Ac—NH—K(me-L)V(me-F)F—CONH2]
inhibition of fibril formation by PrP106-126 (PrP106-126): ineffective
solubility [1]: ≥ 30 mM
solubility in aqueous media (in words) [1]: highly soluble in aqueous media
solubility in organic solvents (in words) ([1]; DMF, diethyl ether, methylene chloride, chloroform): highly soluble
leakage of calcein from vesicles (in words) (Calcein leakage assay): causes the leakage of calcein
calcein escaped from the vesicles (Calcein leakage assay; highest concentration tested): 82%
calcein efflux (Calcein leakage assay; low micromolar concentrations of peptide): less than 10%
stability of peptide structure by CD (mean residue ellipticity at 226 nm) [2]: extremely stable and resistant to chemical denaturation
half-life (Aβ40 fibrils): 24 ± 7 min
effect on Aβ40 fibril formation (in words) (Aβ40): highly effective inhibitor
